Results as given in patent US12617779B2, “Self degradation-type CDK9 inhibitor prodrug and liposome encapsulating same” (Sumitomo Pharma Co., Ltd., priority 2021, dated 2026).

Assay: Evaluation of conversion rate to active form in buffer solution (Experimental Example 1)
Type: physicochemical
Details: for Production rate of Alvocidib / Residual rate: 37° C., 25 umol/L in buffer solution
In short: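 Conversion to Alvocidib and loss of parent were followed by HPLC over 3 h (samples at 0, 0.5, 1, 2, 3 h). Incubations used 25 umol/L compound at 37 °C across pH 5.0–7.4, in 50 mM citrate below pH 6.0 and 50 mM phosphate from pH 6.0 upward.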

In the case of `CN1CC[C@H](c2c(OC(=O)N(CCC(F)(F)F)CC3CCCCN3)cc(O)c3c(=O)cc(-c4ccccc4Cl)oc23)[C@H](O)C1` (stereo partly drawn) [Example 13, 2-(2-chlorophenyl)-5-hydroxy-8-[(3S,4R)-3-hydroxy-1-methylpiperidin-4-yl]-4-oxo-4H-1-benzopyran-7-yl [(piperidin-2-yl)methyl](3,3,3-trifluoropropyl)carbamate], the “Production rate of Alvocidib” value (pH5.0, 0 hr) is reported as 2.1%, the Residual rate (pH5.0, 0 hr) is reported as 82.1% and the “Stability in buffer solution at pH 5” value (pH 5, 37° C., up to 2 or 3 hours) is reported as “stable”. The “Production rate of Alvocidib” value (pH5.0, 0.5 hr) was 3.9%, the Residual rate (pH5.0, 0.5 hr) was 81.7% and the “Production rate of Alvocidib” value (pH5.0, 1 hr) was 4.9%. The Residual rate (pH5.0, 1 hr) was 80.3%, the “Production rate of Alvocidib” value (pH5.0, 2 hr) was 6.3% and the Residual rate (pH5.0, 2 hr) was 78.0%. For the same compound, the “Production rate of Alvocidib” value (pH5.0, 3 hr) was 8.0%, the Residual rate (pH5.0, 3 hr) was 76.1% and the “Production rate of Alvocidib” value (pH5.5, 0 hr) was 2.5%. The Residual rate (pH5.5, 0 hr) was 82.7%, the “Production rate of Alvocidib” value (pH5.5, 0.5 hr) was 5.5% and the Residual rate (pH5.5, 0.5 hr) was 79.2%. For the same compound, the “Production rate of Alvocidib” value (pH5.5, 1 hr) was 8.6%, the Residual rate (pH5.5, 1 hr) was 74.6% and the “Production rate of Alvocidib” value (pH5.5, 2 hr) was 13.9%. The Residual rate (pH5.5, 2 hr) was 67.1%, the “Production rate of Alvocidib” value (pH5.5, 3 hr) was 17.7% and the Residual rate (pH5.5, 3 hr) was 61.8%. For the same compound, the “Production rate of Alvocidib” value (pH6.0, 0 hr) was 3.3%, the Residual rate (pH6.0, 0 hr) was 81.3% and the “Production rate of Alvocidib” value (pH6.0, 0.5 hr) was 11.6%. For the same compound, the Residual rate (pH6.0, 0.5 hr) was 69.8%, the “Production rate of Alvocidib” value (pH6.0, 1 hr) was 21.6% and the Residual rate (pH6.0, 1 hr) was 56.6%. For the same compound, the “Production rate of Alvocidib” value (pH6.0, 2 hr) was 33.3%, the Residual rate (pH6.0, 2 hr) was 40.2% and the “Production rate of Alvocidib” value (pH6.0, 3 hr) was 42.5%. The Residual rate (pH6.0, 3 hr) was 28.3%, the “Production rate of Alvocidib” value (pH6.5, 0 hr) was 3.7% and the Residual rate (pH6.5, 0 hr) was 81.4%. For the same compound, the “Production rate of Alvocidib” value (pH6.5, 0.5 hr) was 27.5%, the Residual rate (pH6.5, 0.5 hr) was 47.7% and the “Production rate of Alvocidib” value (pH6.5, 1 hr) was 47.7%. For the same compound, the Residual rate (pH6.5, 1 hr) was 22.2%, the “Production rate of Alvocidib” value (pH6.5, 2 hr) was 56.7% and the Residual rate (pH6.5, 2 hr) was 9.9%. For the same compound, the “Production rate of Alvocidib” value (pH6.5, 3 hr) was 65.5%, the Residual rate (pH6.5, 3 hr) was 2.8% and the “Production rate of Alvocidib” value (pH7.0, 0 hr) was 5.4%. For the same compound, the Residual rate (pH7.0, 0 hr) was 78.3%, the “Production rate of Alvocidib” value (pH7.0, 0.5 hr) was 49.3% and the Residual rate (pH7.0, 0.5 hr) was 18.7%. For the same compound, the “Production rate of Alvocidib” value (pH7.0, 1 hr) was 65.9%, the Residual rate (pH7.0, 1 hr) was 2.7% and the “Production rate of Alvocidib” value (pH7.0, 2 hr) was 65.1%. The Residual rate (pH7.0, 2 hr) was 0.4%, the “Production rate of Alvocidib” value (pH7.0, 3 hr) was 69.9% and the Residual rate (pH7.0, 3 hr) was 0.0%. The “Production rate of Alvocidib” value (pH7.4, 0 hr) was 9.2%, the Residual rate (pH7.4, 0 hr) was 68.5% and the “Conversion to Alvocidib at pH 7.4” value (pH 7.4, 37° C., up to 3 hours) was “rapidly converted to Alvocidib”. For the same compound, the “Production rate of Alvocidib” value (pH7.4, 0.5 hr) was 65.8%, the Residual rate (pH7.4, 0.5 hr) was 2.2% and the “Production rate of Alvocidib” value (pH7.4, 1 hr) was 65.5%. The Residual rate (pH7.4, 1 hr) was 0.2%, the “Production rate of Alvocidib” value (pH7.4, 2 hr) was 68.6% and the Residual rate (pH7.4, 2 hr) was 0.0%. The “Production rate of Alvocidib” value (pH7.4, 3 hr) was 66.1% and the Residual rate (pH7.4, 3 hr) was 0.0%.
